Measured values: ChEMBL document CHEMBL1133253, “Improved antibacterial activities of coumarin antibiotics bearing 5',5'-dialkylnoviose: biological activity of RU79115” (Bioorg Med Chem Lett, 2000)
≈ marks a conversion by molar mass, not a printed value.

What was measured:
Streptococcus pyogenes = assay: Tested for in vitro antibacterial activity against Streptococcus pyogenes O2A1UC1 phenotype; assay type: functional
Enterococcus faecium = assay: Tested for in vitro antibacterial activity against Enterococcus faecium 02D31P2 vancomycin teicoplanin erythromycin resistance phenotype; assay type: functional
Staphylococcus aureus [1] = assay: Tested for in vitro antibacterial activity against Staphylococcus aureus 011 HT3 phenotype; assay type: functional
Staphylococcus aureus [2] = assay: Tested for in vitro antibacterial activity against Staphylococcus aureus 011 HT1 novobiocin resistance phenotype; assay type: functional
[3] = system: Staphylococcus epidermidis; assay: Tested for in vitro antibacterial activity against Staphylococcus epidermidis 012GO42 oxacillin resistance phenotype; assay type: functional
Staphylococcus aureus [4] = assay: IC50 was determined for gyrase B of Staphylococcus aureus against novobiocin (0.5 mg/mL) as reference; IC50nov/IC50comp
Staphylococcus aureus [5] = assay: Tested for in vitro antibacterial activity against Staphylococcus aureus 011 GO64 ofloxacin oxacillin erythromycin resistance phenotype; assay type: functional

| SMILES | MIC (Streptococcus pyogenes) [µg/mL] | MIC (Enterococcus faecium) [µg/mL] | MIC (Staphylococcus aureus [1]) [µg/mL] | MIC (Staphylococcus aureus [2]) [µg/mL] | MIC [3] [µg/mL] | Ratio (Staphylococcus aureus [4]) | MIC (Staphylococcus aureus [5]) [µg/mL] |
| --- | --- | --- | --- | --- | --- | --- | --- |
| C#CCONC(=O)O[C@H]1[C@@H](O)[C@H](Oc2ccc3c(=O)c(/C(C)=N/OC)c(O)oc3c2C)O[C@@](C)(CC=C)[C@@H]1OC | 0.3 (≈ 0.535 µM) | 0.6 (≈ 1.07 µM) | < 0.04 | 1.2 (≈ 2.14 µM) | < 0.04 | 2.6 | – |
| C#CCONC(=O)O[C@H]1[C@@H](O)[C@H](Oc2ccc3c(O)c(/C(C)=N/OC)c(=O)oc3c2C)OC(CC)(CC)[C@@H]1OC | 0.6 (≈ 1.07 µM) | 0.6 (≈ 1.07 µM) | < 0.04 | 2.5 (≈ 4.44 µM) | < 0.04 | 4 | 0.08 (≈ 0.142 µM) |
| C#CCONC(=O)O[C@H]1[C@@H](O)[C@H](Oc2ccc3c(=O)c(/C(C)=N/OC)c(O)oc3c2C)O[C@@](C)(C=C)[C@@H]1OC | 1.2 (≈ 2.2 µM) | 1.2 (≈ 2.2 µM) | < 0.04 | 2.5 (≈ 4.57 µM) | 0.15 (≈ 0.274 µM) | 2.6 | 0.3 (≈ 0.549 µM) |
